Experimental findings from patent US7732475B2, “Histone deacetylase inhibitors” (Takeda San Diego, Inc., priority 2005, dated 2010) are described below.

Molecules are shown by their SMILES. A value given as a limit tells only on which side of the number the result lay.

The target of this experiment is HDAC2 (Homo sapiens, UniProt Q92769). The experiment in a line: HDAC2 fluorescence inhibition assay (tBoc-Lys(Ac)-AMC).
HDAC2, sequence (Q92769 with tags, fused parts or gaps): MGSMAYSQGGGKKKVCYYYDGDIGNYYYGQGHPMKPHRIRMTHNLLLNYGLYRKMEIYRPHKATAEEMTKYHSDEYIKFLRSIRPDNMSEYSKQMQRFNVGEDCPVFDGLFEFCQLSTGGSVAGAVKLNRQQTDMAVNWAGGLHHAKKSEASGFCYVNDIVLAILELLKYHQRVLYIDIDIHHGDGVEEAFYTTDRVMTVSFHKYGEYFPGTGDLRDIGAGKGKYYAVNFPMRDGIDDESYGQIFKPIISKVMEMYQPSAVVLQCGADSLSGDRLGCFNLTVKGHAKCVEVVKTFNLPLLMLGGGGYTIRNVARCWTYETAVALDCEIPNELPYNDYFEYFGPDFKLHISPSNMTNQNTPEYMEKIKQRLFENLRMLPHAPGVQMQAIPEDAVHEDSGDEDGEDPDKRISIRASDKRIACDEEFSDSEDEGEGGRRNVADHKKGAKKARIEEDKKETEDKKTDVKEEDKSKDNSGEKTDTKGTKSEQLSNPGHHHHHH
`Nc1ccccc1NC(=O)c1ccc(Cn2cc3cc(C(F)(F)F)ccc3n2)cc1` [Example 120, N-(2-aminophenyl)-4-((5-(trifluoromethyl)-2H-indazol-2-yl)methyl)benzamide]: the IC50 (as a rule, the concentration that inhibits the measured activity by half) fell in the range of 50 to 100 nM.

`Nc1ccccc1NC(=O)c1ccc(Cn2cc3ccc(C(F)(F)F)cc3n2)cc1` [Example 121, N-(2-aminophenyl)-4-((6-(trifluoromethyl)-2H-indazol-2-yl)methyl)benzamide] had a half-maximal inhibitory concentration (IC50) of at most 50 nM.

With `Nc1ccccc1NC(=O)c1ccc(Cn2cc(C(=O)O)cn2)cc1` [Example 122, 1-(4-(2-aminophenylcarbamoyl)benzyl)-1H-pyrazole-4-carboxylic acid], the IC50 is at least 500 nM.

As for `Cc1ccn(Cc2ccc(C(=O)Nc3ccccc3N)cc2)n1` [Example 123, N-(2-aminophenyl)-4-((3-methyl-1H-pyrazol-1-yl)methyl)benzamide], the half-inhibitory concentration (IC50) was 100 to 500 nM.

In turn, `Cc1cc(C)n(Cc2ccc(C(=O)Nc3ccccc3N)cc2)n1` [Example 124, N-(2-aminophenyl)-4-((3,5-dimethyl-1H-pyrazol-1-yl)methyl)benzamide] registered an IC50 of 100 to 500 nM.

`CCOC(=O)c1cnn(Cc2ccc(C(=O)Nc3ccccc3N)cc2)c1` [Example 125, Ethyl 1-(4-(2-aminophenylcarbamoyl)benzyl)-1H-pyrazole-4-carboxylate] yielded an IC50 of 50 to 100 nM.

In turn, `Nc1ccccc1NC(=O)c1ccc(Cn2cc(C(=O)NCc3ccccn3)cn2)cc1` [Example 126, 1-(4-(2-aminophenylcarbamoyl)benzyl)-N-(pyridin-2-ylmethyl)-1H-pyrazole-4-carboxamide] displayed a concentration for half-maximal inhibition (IC50) of at most 50 nM.

On to `Nc1ccccc1NC(=O)c1ccc(Cn2cc(C(=O)Nc3ccccc3)cn2)cc1` [Example 127, 1-(4-(2-aminophenylcarbamoyl)benzyl)-N-phenyl-1H-pyrazole-4-carboxamide], for which the half-inhibitory concentration (IC50) is at most 50 nM.

Compound `Nc1ccccc1NC(=O)c1ccc(Cn2cc(C(=O)NCc3ccccc3)cn2)cc1` [Example 128, 1-(4-(2-aminophenylcarbamoyl)benzyl)-N-benzyl-1H-pyrazole-4-carboxamide] returned an IC50 of at most 50 nM.

`Nc1ccccc1NC(=O)c1ccc(Cn2cc3c(n2)CCCC3)cc1` [Example 129, N-(2-aminophenyl)-4-((4,5,6,7-tetrahydro-2H-indazol-2-yl)methyl)benzamide] gave an IC50 of 50 to 100 nM.

Compound `Nc1ccccc1NC(=O)c1ccc(Cn2ncc3c2CCCC3)cc1` [Example 130, N-(2-aminophenyl)-4-((4,5,6,7-tetrahydro-1H-indazol-1-yl)methyl)benzamide] yielded a 50% inhibitory concentration (IC50) of 100 to 500 nM.

The compound `Nc1ccccc1NC(=O)c1ccc(CNc2cc[nH]n2)cc1` [Example 131, 4-((1H-pyrazol-3-ylamino)methyl)-N-(2-aminophenyl)benzamide] showed a 50% inhibitory concentration (IC50) of at least 500 nM.

In turn, `Nc1ccccc1NC(=O)c1ccc(Cn2nccc2N)cc1` [Example 132, 4-((5-amino-1H-pyrazol-1-yl)methyl)-N-(2-aminophenyl)benzamide] displayed a 50% inhibitory concentration (IC50) of at least 500 nM.

`Nc1ccn(Cc2ccc(C(=O)Nc3ccccc3N)cc2)n1` [Example 133, 4-((3-amino-1H-pyrazol-1-yl)methyl)-N-(2-aminophenyl)benzamide]: the IC50 is 100 to 500 nM.

Compound `CNC(=O)c1cnn(Cc2ccc(C(=O)Nc3ccccc3N)cc2)c1` [Example 134, 1-(4-(2-aminophenylcarbamoyl)benzyl)-N-methyl-1H-pyrazole-4-carboxamide] yielded an IC50 of 50 to 100 nM.

For the compound `CCNC(=O)c1cnn(Cc2ccc(C(=O)Nc3ccccc3N)cc2)c1` [Example 135, 1-(4-(2-aminophenylcarbamoyl)benzyl)-N-ethyl-1H-pyrazole-4-carboxamide], the concentration for half-maximal inhibition (IC50) was in the range of 50 to 100 nM.

As for `CN(C)C(=O)c1cnn(Cc2ccc(C(=O)Nc3ccccc3N)cc2)c1` [Example 136, 1-(4-(2-aminophenylcarbamoyl)benzyl)-N,N-dimethyl-1H-pyrazole-4-carboxamide], the 50% inhibitory concentration (IC50) was 100 to 500 nM.

`CC(C)NC(=O)c1cnn(Cc2ccc(C(=O)Nc3ccccc3N)cc2)c1` [Example 137, 1-(4-(2-aminophenylcarbamoyl)benzyl)-N-isopropyl-1H-pyrazole-4-carboxamide]: the IC50 is at most 50 nM.

The compound `Nc1ccccc1NC(=O)c1ccc(Cn2cc(C(=O)NC3CC3)cn2)cc1` [Example 138, 1-(4-(2-aminophenylcarbamoyl)benzyl)-N-cyclopropyl-1H-pyrazole-4-carboxamide] had an IC50 of 50 to 100 nM.

Turning to `Nc1ccccc1NC(=O)c1ccc(Cn2cc(C(=O)NCC3CC3)cn2)cc1` [Example 139, 1-(4-(2-aminophenylcarbamoyl)benzyl)-N-(cyclopropylmethyl)-1H-pyrazole-4-carboxamide], the IC50 is 50 to 100 nM.

In turn, `CN(C)CCNC(=O)c1cnn(Cc2ccc(C(=O)Nc3ccccc3N)cc2)c1` [Example 140, 1-(4-(2-aminophenylcarbamoyl)benzyl)-N-(2-(dimethylamino)ethyl)-1H-pyrazole-4-carboxamide] showed an IC50 of 50 to 100 nM.

Regarding `NC(=O)c1cnn(Cc2ccc(C(=O)Nc3ccccc3N)cc2)c1` [Example 142, 1-(4-(2-aminophenylcarbamoyl)benzyl)-1H-pyrazole-4-carboxamide], the half-maximal inhibitory concentration (IC50) lay in the range of 50 to 100 nM.

`Nc1ccccc1NC(=O)c1ccc(Cn2cc(C(=O)NCCO)cn2)cc1` [Example 143, 1-(4-(2-aminophenylcarbamoyl)benzyl)-N-(2-hydroxyethyl)-1H-pyrazole-4-carboxamide] came in with an IC50 of 50 to 100 nM.

In turn, `CN(C)CCCNC(=O)c1cnn(Cc2ccc(C(=O)Nc3ccccc3N)cc2)c1` [Example 144, 1-(4-(2-aminophenylcarbamoyl)benzyl)-N-(3-(dimethylamino)propyl)-1H-pyrazole-4-carboxamide] yielded an IC50 of at most 50 nM.

Take `Nc1ccccc1NC(=O)c1ccc(Cn2cc(C(=O)NCc3cccnc3)cn2)cc1` [Example 145, 1-(4-(2-aminophenylcarbamoyl)benzyl)-N-(pyridin-3-ylmethyl)-1H-pyrazole-4-carboxamide]: the IC50 was at most 50 nM.

In turn, `Nc1ccccc1NC(=O)c1ccc(Cn2cc(C(=O)NCc3ccncc3)cn2)cc1` [Example 146, 1-(4-(2-aminophenylcarbamoyl)benzyl)-N-(pyridin-4-ylmethyl)-1H-pyrazole-4-carboxamide] came in with an IC50 of at most 50 nM.

Take `Nc1ccccc1NC(=O)c1ccc(Cn2cc(C(=O)NCCN3CCOCC3)cn2)cc1` [Example 147, 1-(4-(2-aminophenylcarbamoyl)benzyl)-N-(2-morpholinoethyl)-1H-pyrazole-4-carboxamide]: the IC50 lay in the range of 50 to 100 nM.

Compound `Cc1ccnn1Cc1ccc(C(=O)Nc2ccccc2N)cc1` [Example 148, N-(2-aminophenyl)-4-((5-methyl-1H-pyrazol-1-yl)methyl)benzamide] came in with an IC50 of 100 to 500 nM.

`CCCNC(=O)c1cnn(Cc2ccc(C(=O)Nc3ccccc3N)cc2)c1` [Example 149, 1-(4-(2-aminophenylcarbamoyl)benzyl)-N-propyl-1H-pyrazole-4-carboxamide] showed a 50% inhibitory concentration (IC50) of at most 50 nM.

On to `CC(C)CNC(=O)c1cnn(Cc2ccc(C(=O)Nc3ccccc3N)cc2)c1` [Example 150, 1-(4-(2-aminophenylcarbamoyl)benzyl)-N-isobutyl-1H-pyrazole-4-carboxamide], for which the 50% inhibitory concentration (IC50) was at most 50 nM.

`COCCNC(=O)c1cnn(Cc2ccc(C(=O)Nc3ccccc3N)cc2)c1` [Example 151, 1-(4-(2-aminophenylcarbamoyl)benzyl)-N-(2-methoxyethyl)-1H-pyrazole-4-carboxamide] gave an IC50 of 50 to 100 nM.
